According to patent US20030166606A1, “5'-deoxy-n-(substituted oxycarbonyl)-5-fluorocytosine and derivatives thereof, method of preparing same, and anticancer composition comprising same as active ingredients” (priority 2003, published 2003):
Converted amounts (≈) assume the structure as drawn. Read-outs that look alike come from different tables or passages of the source.

Columns and labels:
[1] = system: mouse tumor cell line L1210; test: Anticancer activity on L1210 in BDF1 mice, increased life span (Example 35, Table 5); format: in vivo; details: 15 times; for Average life day: control 17.8
Method: The mice used were 5-week-old BDF1 male mice (19 to 20 g) that were purchased from Charles River Japan, and adapted for 1 week. The breeding condition of the mice was set to a temperature of 24±2° C. and a humidity of […] Purified water for drinking water was supplied to the mice twice a week, and straws and cages were changed once a week. The experiment was performed using two mice per group. […] The drug was orally administered 24 hours after the cellular transplantation. […] The capecitabine was dissolved in dimethylsulfoxide and suspended in 0.5% carboxymethyl cellulose, and the compound of 2a was dissolved in distilled water. […] The anticancer activity was determined as increased life span.

[2] = system: mouse tumor cell line L1210; test: Anticancer activity on L1210 in BDF1 mice, increased life span (Example 34, Table 4); format: in vivo; details: for Average life maintenance day: control 8.8
Method: Capecitabine (5′-deoxy-N^4-(pentyloxycarbonyl)-5-fluorocytosine (in Formula 1, R^a=pentyl, R^b=hydrogen) which has good anticancer activity among. 5′-deoxy-N-alkyloxycarbonyl-5-fluorocytosine derivatives disclosed in European Patent No. 602454 was used for a control, 5′-deoxy-N^4-propazyloxycarbonyl-5-fluorocytosine-5′-carboxylic acid (Formula 2a) obtained from Example 3 was used for a sample, and anticancer activity to the mouse tumor cell line L1210 was measured.
The mice used were 5-week-old BDF1 male mice (19 to 20 g) that were purchased from Charles River Japan, and adapted for 1 week. The breeding condition of the mouse was set to a temperature of 24±2° C. and a humidity of […] Purified water for drinking was supplied to the mice twice a week, and straws and cages were changed once a week. The experiment was performed using two mice per group. As the tumor cell line, an L1210 mouse blood tumor cell line was used, the cell line was sub-cultured in a Falcon culture flask twice or three times, washed with a phosphorous buffer solution (pH 7.2), quantified under a microscope to produce a cell suspension of 1×10^7/ml, and 100 (1×10^6) […] of the cell suspension was abdominally administered to the mouse using 1 ml of a disposable sterilized injector. The drug was orally administered 24 hours after the cellular transplantation. The concentration of the administered capecitabine was 1.2, 5.7, 28.8, 144, and 720 mg/kg/100 μl for respective mice, and that of the compound of 2a of the present invention was 1.2, 5.8, 28.8 mg/kg/100 μl for respective mice. The capecitabine was dissolved in dimethylsulfoxide and suspended in 0.5% carboxymethyl cellulose, and the compound of 2a was dissolved in distilled water. The samples were administered to the mice five times a week for 3 weeks, for a total of 15 times, starting 24 hours after the tumor cell administration. The anticancer activity was determined as increased life span to control.

[3] = system: mouse tumor cell line L1210; test: Anticancer activity on L1210 in BDF1 mice, increased life span (Example 6, Table 2); format: in vivo; details: for Increased life span (%) / Average survival date: 15 times; for Average survival date: control 17.8
Method: The mice used were 5-week-old BDF1 male mice (19 to 20 g) that were purchased from Charles River Japan, and adapted for 1 week. The breeding condition of the mice was set to a temperature of 24±2° C. and a humidity of 50±1° C. Purified water for drinking was supplied to the mice twice a week, and straws and cages were changed once a week. The experiment was performed using two mice per group. As the tumor cell line, an L1210 mouse blood tumor cell line was used, and the cell line was sub-cultured in a Falcon culture flask twice or three times, washed with a phosphorous buffer solution (pH 7.2), and quantified under a microscope to produce a cell suspension of 1×10^7/ml, and 100 (1×10^6) ml of the cell suspension was abdominally administered to the mouse using 1 ml of a disposable sterilized injector. The drug was orally administered 24 hours after the cellular transplantation. […] The samples were administered to the mice five times a week for 3 weeks, for a total of 15 times, starting 24 hours after the tumor cell administration. The anticancer activity was determined as increased life span to control.

[4] = system: SK-MEL-2 (melanoma cancer); test: MTT cell toxicity to human cancer cells, SK-MEL-2; format: cell-based; details: for IC50 Cancer cell line SK-MEL2: 72 hours, Table 3
Method: (§1) For measuring in vitro anticancer activity of 5′-deoxy-N^4-propargyloxycarbonyl-5-fluorocytosine-5′-carboxylic acid (R^3=propargyl, compound of 2a) using 5-Fu as a reference compound, cell toxicity to human cancer cell was evaluated. The cancer cells used were A549 (lung cancer), HCT15 (colon cancer), SK-OV-3 (ovarian cancer), and SK-MEL-2 (melanoma cancer).
(§2) The cancer cells were incubated in an incubator with a constant humidity at 37° C. and 5% CO2, and an RPMI medium with the addition of 10% fetal bovine serum was used for a basic medium. In order to identify cell toxicity, the cancer cells in a logarithmic phase were inoculated at 2-5×10^4 cells per well of a 96-well plate, and incubated for 24 hours. A sample solution of 5-FU and 5′-deoxy-N^4-propargyloxycarbonyl-5-flurocytosine-5′-carboxylic acid was stepwisely added to the well and incubated for 72 hours. 20 μl of 5 mg/ml MTT reacting solution dissolved in a physiological saline solution was added to the well of the incubated plate and incubated for 4 hours. The produced formazan crystal was dissolved in dimethylsulfoxide and absorbance of each well was measured at 540 nm to calculate a number of living cells. The absorbance of the well with the medium and without cell was set to 0%, that of the well without the sample was set to 100%, and the concentration corresponding to 50% was called an IC50 (μg/ml) value.
(§3) In order to measure anticancer activity of 5′-deoxy-N-alkyloxycarbonyl-5-fluorocytosine-5′-carboxylic acid (compound of Formula 2a) of the present invention using 5-FU as a control, the cell toxicity to human cancer cells was measured. The human cancer cells used were A549 (lung cancer), HCT15 (colon cancer), SK-OV-3 (ovarian cancer), and SK-MEL-2 (melanoma cancer).
(§4) The cancer cells were cultured in an incubator with a constant humidity at 37° C. and 5% CO2, and an RPMI medium with 10% fetal bovine serum was used for a medium. In order to measure cell toxicity, the cancer cells in a logarithmic phase were inoculated into 2 to 5×10^4 cells per well of a 96-well plate, incubated for 24 hours, and a sample solution of a stepwise dilution of 5-FU and 5′-deoxy-N^4-pentyloxycarbonyl-5-fluorocytocine-5′-carboxylic acid were added thereto followed by incubating for 72 hours. 20 μl of 5 mg/ml of MTT reacting solution dissolved in a physiological saline solution was added to each well of the incubated plate, incubated for 4 hours, the produced formazan crystal was dissolved in dimethylsulfoxide, and the absorbance of each well was measured at a wavelength of 540 nm to calculate the number of living cells.

A549 (lung cancer) = test: MTT cell toxicity to human cancer cells, A549; format: cell-based; details: for IC50 Cancer cell line A549: 72 hours, Table 3
Method: as §1, §2, §3, §4

HCT15 (colon cancer) = test: MTT cell toxicity to human cancer cells, HCT15; format: cell-based; details: for IC50 Cancer cell line HCT15: 72 hours, Table 3; for IC50: Homo sapiens, HCT-15, 72 hours
Method: as §1, §2, §3, §4

SK-OV-3 (ovarian cancer) = test: MTT cell toxicity to human cancer cells, SK-OV-3; format: cell-based; details: for IC50 Cancer cell line SK-OV-3: 72 hours, Table 3; for IC50: Homo sapiens, SK-OV-3, 72 hours
Method: as §1, §2, §3, §4

Row | Compound | Life maintenance rate (%) ([1]; 1.2 mg/kg/day oral) | Average life day ([1]; 1.2 mg/kg/day oral) | Life maintenance rate (%) ([1]; 5.8 mg/kg/day oral) | Average life day ([1]; 5.8 mg/kg/day oral) | Life maintenance rate (%) ([1]; 28.8 mg/kg/day oral) | Average life day ([1]; 28.8 mg/kg/day oral) | Increased life span (%) ([2]; 0.13 mmol/kg/day oral) | Average life maintenance day ([2]; 0.13 mmol/kg/day oral) | Increased life span (%) ([2]; 0.67 mmol/kg/day oral) | Average life maintenance day ([2]; 0.67 mmol/kg/day oral) | Increased life span (%) ([2]; 1.5 mmol/kg/day oral) | Average life maintenance day ([2]; 1.5 mmol/kg/day oral) | Increased life span (%) ([3]; 5.8 mg/kg/day oral) | Average survival date ([3]; 5.8 mg/kg/day oral) | Increased life span (%) ([3]; 28.8 mg/kg/day oral) | Average survival date ([3]; 28.8 mg/kg/day oral) | IC50 Cancer cell line SK-MEL2 [4] | IC50 Cancer cell line A549 (A549 (lung cancer)) | IC50 Cancer cell line HCT15 (HCT15 (colon cancer)) | IC50 Cancer cell line SK-OV-3 (SK-OV-3 (ovarian cancer)) | further results
1 | CCCCCOC(=O)Nc1nc(=O)n([C@@H]2O[C@H](C)[C@@H](O)[C@H]2O)cc1F [Capecitabine, 5′-deoxy-N^4-(pentyloxycarbonyl)-5-fluorocytosine] | 6% | 18.9 days | 8% | 19.2 days | 14% | 20.2 days | 6.8% | 9.4 days | 9.1% | 9.6 days | 42.0% | 12.5 days | 8% | 19.2 days | 14% | 20.2 days | – | – | – | – | Life maintenance rate (%) ([1]; 144 mg/kg/day oral): 15%; Average life day ([1]; 144 mg/kg/day oral): 20.1 days; Life maintenance rate (%) ([1]; 720 mg/kg/day oral): 30%; Average life day ([1]; 720 mg/kg/day oral): 22.8 days; Increased life span (%) ([3]; 144 mg/kg/day oral): 15%; Average survival date ([3]; 144 mg/kg/day oral): 20.1 days; Increased life span (%) ([3]; 720 mg/kg/day oral): 30%; Average survival date ([3]; 720 mg/kg/day oral): 22.8 days
2 | C#CCOC(=O)Nc1nc(=O)n([C@@H]2O[C@H](C(=O)O)[C@@H](O)[C@H]2O)cc1F [Example 3, 5′-deoxy-N^4-(propargyloxycarbonyl)-5-fluorocytosine-5′-carboxylic acid] | 8% | 20.1 days | 11% | 20.6 days | 23% | 21.9 days | – | – | – | – | – | – | 11% | 20.6 days | 23% | 21.9 days | 0.007 µg/mL (≈ 0.0196 µM) | 0.005 µg/mL (≈ 0.014 µM) | 0.040 µg/mL (≈ 0.112 µM) | 0.005 µg/mL (≈ 0.014 µM) | Increased life span (%) ([3]; 1.2 mg/kg/day oral): 8%; Average survival date ([3]; 1.2 mg/kg/day oral): 20.1 days; anticancer activity in vivo ([3]; summary of Table 2, animal experiment): good anticancer activity in vivo
3 | O=c1[nH]cc(F)c(=O)[nH]1 [Example 5-FU, 5-fluorouracil, reference compound] | – | – | – | – | – | – | – | – | – | – | – | – | – | – | – | – | – | – | – | – | IC50 ([4]; Homo sapiens, SK-MEL-2, 72 hours, Table 3, read-out: IC50 Cancer cell line SK-MEL2): 0.63 µg/mL (≈ 4.84 µM); IC50 (A549 (lung cancer); Homo sapiens, A549, 72 hours, Table 3, read-out: IC50 Cancer cell line A549): 0.26 µg/mL (≈ 2 µM); IC50 (HCT15 (colon cancer); Table 1, read-out: IC50 Concentration (μg/ml) HCT15): 0.11 µg/mL (≈ 0.846 µM); IC50 (HCT15 (colon cancer); Table 3, read-out: IC50 Cancer cell line HCT15): 0.11 µg/mL (≈ 0.846 µM); Increased life span (%) ([2]; 0.15 mmol/kg/day): 62.5%; Average life maintenance day ([2]; 0.15 mmol/kg/day): 14.3 days; Increased life span (%) ([2]; 0.23 mmol/kg/day): 87.5%; Average life maintenance day ([2]; 0.23 mmol/kg/day): 16.5 days; IC50 (SK-OV-3 (ovarian cancer); Table 1, read-out: IC50 Concentration (μg/ml) SK-OV-3): 0.03 µg/mL (≈ 0.231 µM); IC50 (SK-OV-3 (ovarian cancer); Table 3, read-out: IC50 Cancer cell line SK-OV-3): 0.03 µg/mL (≈ 0.231 µM)
4 | CCOC(=O)Nc1nc(=O)n([C@@H]2O[C@H](C(=O)O)[C@@H](O)[C@H]2O)cc1F [Example 25, 5′-deoxy-N^4-(ethyloxycarbonyl)-5-fluorocytosine-5′-carboxylic acid] | – | – | – | – | – | – | – | – | – | – | – | – | – | – | – | – | 0.16 µg/mL (≈ 0.461 µM) | 0.49 µg/mL (≈ 1.41 µM) | 0.47 µg/mL (≈ 1.35 µM) | 0.16 µg/mL (≈ 0.461 µM) | –
5 | CCCCCOC(=O)Nc1nc(=O)n([C@@H]2O[C@H](C(=O)O)[C@@H](O)[C@H]2O)cc1F [Example 28, 5′-deoxy-N^4-(pentyloxycarbonyl)-5-fluorocytosine-5′-carboxylic acid] | – | – | – | – | – | – | 3.4% | 9.1 days | 28.4% | 11.3 days | 91.9% | 16.8 days | – | – | – | – | 0.03 µg/mL (≈ 0.0771 µM) | 0.17 µg/mL (≈ 0.437 µM) | 0.12 µg/mL (≈ 0.308 µM) | 0.03 µg/mL (≈ 0.0771 µM) | –
6 | C=CCOC(=O)Nc1nc(=O)n([C@@H]2O[C@H](C(=O)O)[C@@H](O)[C@H]2O)cc1F [Example 30, 5′-deoxy-N^4-(allyloxycarbonyl)-5-fluorocytosine-5′-carboxylic acid] | 25% | 22.1 days | 39% | 24.8 days | 44% | 25.7 days | – | – | – | – | – | – | – | – | – | – | 0.008 µg/mL (≈ 0.0223 µM) | 0.04 µg/mL (≈ 0.111 µM) | 0.032 µg/mL (≈ 0.0891 µM) | 0.008 µg/mL (≈ 0.0223 µM) | –
